Data as given in PMC5738391, “Three classes of ligands each bind to distinct sites on the orphan G protein-coupled receptor GPR84” (Scientific Reports, 2017).

What was measured:
[1] = target: GPR84-Cys^352Ile Gαi2 fusion protein (Homo sapiens, UniProt Q9NQS5); test: [3H]G9543 radioligand binding (saturation and displacement), GPR84-Cys352Ile Gαi2 fusion protein; set-up: Cys352Ile Gαi2 (fusion partner, same polypeptide); expressed in transfected cells; host or cells: membranes of Flp-In T-REx 293 cells, doxycycline-induced; conditions: displacement assay
Procedure: [^3H]G9543 is an analog of compounds 104, 107 and 161 with the same characteristic 2-(substituted-alkoxy)-9-substituted-6,7-dihydro-pyrimido[6,1-a]isoquinolin-4-one chemotype. […] Binding was initiated by the addition of membranes (5 µg of protein per tube). All assays were performed at 25 °C for 1 h before termination by the addition of ice-cold phosphate-buffered saline and vacuum filtration through GF/C glass filters using a 24-well Brandel cell harvester (Alpha Biotech, Glasgow, UK). Each reaction tube was washed three times with ice-cold PBS. The filters were allowed to dry for 2–3 h and then placed in 3 ml of Ultima Gold^TM XR. Radioactivity was quantified by liquid scintillation spectrometry. Specific binding was defined as the difference between binding detected in the presence and absence of 1 µM compound 104.
All data are presented as means ± SEM of at least three independent experiments. Data analysis and curve fitting was carried out using the GraphPad Prism software package version 5.0b (GraphPad, San Diego). For functional assays the concentration-response data were plotted on a log axis, with the untreated vehicle control plotted at 1 log unit lower than the lowest ligand concentration, and fitted to a three parameter sigmoidal curve with the Hill slope constrained to equal 1. In case of inhibition experiments with antagonists an equivalent analysis was followed to fit an inverse sigmoidal curve. To perform the statistical analysis of curve parameters, data from multiple experiments were fitted independently and resulting curve fit values were analysed with indicated tests. For radioligand binding data, saturation binding curves were generated by fitting the specific binding, which was obtained by subtracting non-specific from total binding, to a one site specific binding model that allows calculation of Kd values for the radioligand at wild type and mutant receptors. To determine affinity of unlabelled ligands, data obtained in displacement assays were fit to an inverse three parameter sigmoidal curve constrained by radioligand affinity and concentration to allow for Ki calculation.

[2] = target: T1, Arg^172Ala GPR84-Cys^352Ile Gαi2 fusion protein (Homo sapiens, UniProt Q9NQS5, R172A); test: [35S]GTPγS binding, Arg172Ala mutant fusion protein; assay type: biochemical
T1 construct: Cys352Ile Gαi2 (fusion partner, same polypeptide); expressed in transfected cells; host or cells: membranes of Flp-In T-REx 293 cells, doxycycline-induced
Source text: To try to identify how a MCFA might interact with GPR84 we turned to homology modelling studies. Although GPR84 is not closely related to the other GPCRs that respond to either short chain (FFA2, FFA3) or long chain (FFA1, FFA4) fatty acids[8],[9], in each of the other cases the carboxylate of the fatty acid is co-ordinated by one or more arginine residues located at or near the extracellular surface[12]–[14]. […] As we have highlighted recently[9] GPR84 and the β2-adrenoceptor are only distantly related whilst, of the currently available atomic level GPCR structures, the orexin OX1 receptor[34] has highest overall sequence identity (31%) with GPR84. We, therefore, generated and employed a new homology model of GPR84 based on the transmembrane domain architecture of the OX1 receptor (Fig. 6). However, because ECL2 of GPR84 is very similar in sequence to that of rhodopsin (Fig. 6a), with 43% residue identity over this region, we incorporated this knowledge into the modelling process. In the resulting hybrid model (Fig. 6a) Arg^172 within ECL2 is pointing into the potential binding cavity within the helical bundle. This was not the case when Nikaido et al.,[3] employed the β2-adrenoceptor-based model, probably because the ECL2 sequences of the β2-adrenoceptor and GPR84 have no relatedness. […] To assess this we mutated Arg^172 to Ala within the setting of the GPR84-Cys^352Ile Gαi2 fusion protein. […] Equivalent results were obtained in studies in which the Arg^172Ala mutation was introduced into the FLAG-hGPR84-eYFP construct (Fig. 7b).
FLAG-humanGPR84-Gαi2 fusion proteins were constructed by replacing eYFP within the FLAG-humanGPR84-eYFP-pcDNA5/FRT/TO construct with sequence corresponding to Gαi2 or Cys^352Ile Gαi2 using NotI and XhoI restriction enzymes. Site-directed mutagenesis to generate point mutants of GPR84 was performed according to the QuikChange method (Stratagene, Cheshire, UK). The identity of all constructs was verified by nucleotide sequencing.
Initially, 5 μg of generated membrane protein was pre-incubated for 15 min at 25 °C in assay buffer (20 mM HEPES, 5 mM MgCl2; 160 mM NaCl; 1 μM GDP; 0.05% fatty acid-free bovine serum albumin; pH 7.5) containing the indicated ligand concentrations. […] The reaction was then initiated with addition of [^35S]GTPγS (50 nCi per tube), and the reaction was terminated after 45 minutes incubation at 30 °C by rapid filtration through GF/C glass filters using a 24-well Brandel cell harvester (Alpha Biotech, Glasgow, UK). Unbound radioligand was removed from filters by three washes with ice-cold phosphate buffered saline (pH 7.4) and filters were dried for 2–3 h at room temperature. Dried filters were added to 3 mL of Ultima Gold^TM XR (PerkinElmer Life Sciences, Beaconsfield, UK) and [^35S]GTPγS binding was determined by liquid scintillation spectrometry.

[3] = target: T2, FLAG-Arg^174Ala hGPR84-eYFP (Homo sapiens, UniProt Q9NQS5, R174A); test: [35S]GTPγS binding, Arg174Ala mutant receptor; assay type: biochemical
T2 construct: expressed in transfected cells; host or cells: membranes of Flp-In T-REx 293 cells, doxycycline-induced

[4] = target: T3, Arg^172Lys GPR84-Cys^352Ile Gαi2 fusion protein (Homo sapiens, UniProt Q9NQS5, R172K); test: [35S]GTPγS binding, Arg172Lys mutant fusion protein; assay type: biochemical
T3 construct: Cys352Ile Gαi2 (fusion partner, same polypeptide); expressed in transfected cells; host or cells: membranes of Flp-In T-REx 293 cells, doxycycline-induced
T3 sequence (Q9NQS5 2-396 R172K): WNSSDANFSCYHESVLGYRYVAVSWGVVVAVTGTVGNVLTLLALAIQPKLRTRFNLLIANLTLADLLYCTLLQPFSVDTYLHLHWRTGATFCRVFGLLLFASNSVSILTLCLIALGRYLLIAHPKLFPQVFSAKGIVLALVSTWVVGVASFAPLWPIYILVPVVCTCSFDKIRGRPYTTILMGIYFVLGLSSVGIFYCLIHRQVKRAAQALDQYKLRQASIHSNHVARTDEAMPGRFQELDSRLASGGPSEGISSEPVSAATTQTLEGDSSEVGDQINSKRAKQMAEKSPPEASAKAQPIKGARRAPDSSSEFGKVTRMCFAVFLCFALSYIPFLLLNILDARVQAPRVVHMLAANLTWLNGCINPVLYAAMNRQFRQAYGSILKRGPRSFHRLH

GPR84-Cys^352Ile Gαi2 fusion protein, sequence (Q9NQS5 2-396): as the sequence (Q9NQS5 2-396 R172K) above, with K171R counted along it
T2 sequence (Q9NQS5 whole entry R174A): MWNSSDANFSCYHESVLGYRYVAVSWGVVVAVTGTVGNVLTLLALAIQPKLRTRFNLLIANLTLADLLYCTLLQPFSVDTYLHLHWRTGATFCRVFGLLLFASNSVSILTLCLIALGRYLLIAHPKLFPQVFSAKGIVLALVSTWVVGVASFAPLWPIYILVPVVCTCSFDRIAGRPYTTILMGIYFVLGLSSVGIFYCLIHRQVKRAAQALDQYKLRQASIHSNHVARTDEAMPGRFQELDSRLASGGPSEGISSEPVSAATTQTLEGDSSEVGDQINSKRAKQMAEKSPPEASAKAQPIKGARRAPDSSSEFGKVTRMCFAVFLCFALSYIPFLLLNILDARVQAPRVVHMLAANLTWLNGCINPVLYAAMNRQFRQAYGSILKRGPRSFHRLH
T1 sequence (Q9NQS5 2-396 R172A): as the sequence (Q9NQS5 2-396 R172K) above, with K171A counted along it

CCCCCCCCCC(=O)O [C10, decanoic acid]
ability to compete with [3H]G9543 binding [1]: neither C10 nor DIM was able to compete effectively
agonist response at Arg172Ala mutant [2]: no response
effect of Arg174Ala mutation on agonist function or potency [3]: did not affect function or potency
agonist response at Arg172Lys mutant [4]: eliminated response

c1ccc2c(Cc3c[nH]c4ccccc34)c[nH]c2c1 [DIM, 3,-3′-diindolylmethane]
ability to compete with [3H]G9543 binding [1]: neither C10 nor DIM was able to compete effectively
agonist response at Arg172Ala mutant [2]: retained full activity
effect of Arg174Ala mutation on agonist function or potency [3]: did not affect function or potency
agonist response at Arg172Lys mutant [4]: without affecting response
